How the values were obtained:
Format in all cases: cell-based, human
KG1a cells [1] = test: CHO-E cell rolling on glutaraldehyde-fixed KG1a monolayers; conditions: 2.8 dynes/cm^2; EDTA 5 mM; HECA 452 50 μg/ml
Text: (§1) E-selectin-mediated adhesive interactions, under defined shear stress, were examined between hematopoietic cell monolayers and suspensions of CHO-E (Chinese hamster ovary cells stably transfected with full-length cDNA encoding human E-selectin) in flow. CHO-E and empty vector constructs (CHO-Mock) were maintained in MEM 10% FBS/1% Penicillin/Streptomycin (Life Technologies, Inc.) and HAM's F-12 (Cellgro, Inc.)/5% FCS/1% Penicillin/Streptomycin, respectively. CHO-E cell tethering and rolling on hematopoietic cell monolayers was visualized by video microscopy in real time using the parallel-plate flow chamber. […] To prepare hematopoietic cell monolayers>90% confluent, suspensions of cells (KG1a, HL60, K562, or RPMI 8402) at 2×10^6/ml RPMI1640 without NaBicarbonate/2% FBS were cytocentrifuged in […] plates at 5×10^6/well and then fixed in 3% glutaraldehyde. Reactive aldehyde groups were blocked in 0.2M lysine, and plated cells were suspended H/H/Ca++. […] The number of CHO-E/Mock cell rolling on each monolayer was measured in one frame of five independent fields under 10× magnification from multiple experiments. A minimum of 3 experiments was performed and results were expressed as the mean±standard deviation.

KG1a cells [2] = test: L-selectin ligand activity of treated KG1a cells, parallel-plate flow chamber; conditions: thoracic duct lymphocytes, shear stress 4.4 dynes/cm^2
Description: Leukocyte tethering and rolling on human HC monolayers was visualized by video microscopy in real time using the parallel-plate flow chamber prepared in the following manner. Prior to experimentation, leukocytes were washed twice in HBSS and then suspended at 10^7/ml in HBSS/10 mM HEPES/2mMCaCl2 (H/H/Ca^++). […] To prepare human HC monolayers (100% confluent), suspensions of HCs (KG 1a, HL60, RPMI 8402, K562) at 2×10^6/ml RPMI-1640 without Na+Bicarbonate/2% FBS were seeded in 6-well plates at 5×10^6/well, centrifuged to layer cells then fixed in 3% glutaraldehyde. Reactive aldehyde groups were blocked in 0.2M lysine, and plated cells were suspended H/H/Ca^++. To assess the dependence of binding by sialic acid residues on L-selectin ligands, cells were pretreated with Vibrio cholerae neuraminidase (0.1 U/mlH/H/Ca^++ for lhr at 37° C.). To examine the contribution of sialomucins (including PSGL-1) and PSGL-1 alone, OSGE (60 μg/ml H/H/Ca^++ for lhr at 37° C.) or mocarhagin (10 μg/ml for 20 min at 37° C.) treatments were performed, respectively. […] The number of leukocytes rolling in one frame of five independent fields under 200× magnification at shear stress of 0.2, 0.4, 0.8, 2.2, 4.4, 8.8, 17.6 and 26.4 dynes/cm^2 were quantified. A minimum of 3 experiments was performed over the entire range of shear stress and results were expressed as the mean±standard deviation.

HL60 cells = test: CHO-E cell rolling on glutaraldehyde-fixed HL60 monolayers; conditions: 2.8 dynes/cm^2; EDTA 5 mM; HECA 452 50 μg/ml
Text: as §1

## neuraminidase: Vibrio cholerae neuraminidase, cleaves terminal sialic acids
KG1a cells [1]
  CHO-E cell rolling / E-selectin ligand activity of KG1a cells: completely inhibited
KG1a cells [2]
  % Control Mean Lymphocyte Binding: 0.3 % Control
HL60 cells
  CHO-E cell rolling / E-selectin ligand activity of HL60 cells: completely inhibited
